# According to patent US5952296A, “Method of using relaxin as therapeutic or preventing agent” (priority 1993, dated 1999):
# Entries after “also recorded” stand apart in the source; their conditions may differ. No end group written: not given here.
# Experiments:
# BASM cells = assay: Bovine aorta smooth muscle (BASM) cells cultured in vitro: actin cytoskeleton and intracellular cGMP; type: cell-based; details: for increase in intracellular cGMP levels: BASM cells
# Source text: 1-b Smooth muscle cells of the vascular wall obtained from bovine aorta (BASM) and cultured in vitro are a suitable in vitro model for understanding the mode of action of RLX on blood vessels.
# […] RLX caused a striking concentration-related increase in intracellular cGMP levels (400% and 900% over the values of the untreated cultures).
# [1] = test system: guinea pig hearts, isolated and perfused in vitro; assay: Coronary flow in isolated guinea pig hearts perfused in a Langendorff apparatus
# Protocol: (§1) 1-a The coronary system was deemed a suitable model for studying the influence of RLX on dilation of blood vessels. Rat and guinea pig hearts, isolated and perfused in vitro in a Langendorff apparatus, were used to evaluate whether RLX causes changes in the coronary flow. After 30 minutes stabilization, in some experiments RLX (30 ng/ml) was added to the perfusion fluid and perfusion lasted for 20 minutes. In other experiments,RLX (30 ng/ml) was injected as a bolus into the aortic cannula. The perfusates were collected and the coronary flow determined. […] The percentage of basal flow variation is depicted versus time. In these diagrams (as well as in the next ones) values are expressed as mean ± SE (standard error). Statistic analyses were done calculating the Student's test (P), whose value is shown in the diagrams.
# To clarify the mechanisms of action of RLX on dilation of coronary vessels, nitric oxide (NO) production and histamine release were assayed in the perfused guinea pig hearts. NO, which is known to be a powerful vasodilatory agent, was measured by determination of nitrites (stable end-products of NO metabolism) in the perfusates. […]
# [2] = test system: isolated serosal rat and guinea pig MCs and rat mesenteric MCs; assay: Mast cell histamine release, degranulation and intracellular Ca2+; type: cell-based; details: for calcium-ionophore-induced and anaphylactic histamine release: mast cells stimulated by ionophore or sensitized by allergen
# Source text: 1-c Mast cells (MCs) are known to produce and release vasoactive substances. It has therefore been investigated whether RLX also exerts its vasodilatory action by influencing MC function. […] This effect is mediated by a stimulation of NO production. In fact, the RLX-induced depression of histamine release evoked by calcium ionophore was prevented by MeArg and potentiated by SOD. Moreover, RLX blunted the rise in the intracellular Ca^2+ levels evoked by calcium ionophore in a concentration-related fashion (41% decrease with 10 ng/mL RLX and 97% decrease with 100 ng/mL RLX). From these findings, it emerges that the vasodilatory action of RLX is not due to histamine release by MCs but, rather, to production of the vasodilatory agent NO, in keeping with its effect in the coronary system. The above results are summarized in the diagrams A and B in FIG. 4.
# The degree of inhibition was the function of the dose of relaxin being used.
# [3] = test system: mesenteric artery of spontaneously hypertensive rats; details: two days infusion; cited from earlier work
# deep artery of the penis = assay: Blood flow in the deep artery of the penis by echo-doppler after injection into the cavernous bodies; type: in vivo, human
# Protocol: 1-d The blood flow in the penis is influenced by local NO production. Based on the ability of RLX to stimulate NO synthesis, the effect of the peptide on the blood flow in the deep artery of the penis was investigated. RLX (sterilized by microfiltration) was injected into the cavernous bodies of 4 human normal volunteers at a dose of 10 ng, and the blood flow measured by an echo-doppler Acuson 128, 1-6 minutes after the injection. […] In FIG. 5 the echo-doppler images are reported, showing the flow under normal conditions (diagram A), 1 min. after RLX injection (diagram B) and 5 min. after RLX injection (diagram C).
# [4] = test system: isolated platelets from human volunteers and rabbits; assay: Aggregation of isolated platelets incubated with RLX and stimulated with proaggregants; type: cell-based, human and rabbit
# Protocol: A first series of experiments was carried out on isolated platelets from human volunteers and rabbits, incubated with RLX and then stimulated with proaggregants.
# This effect was concentration-relatedand attained a maximum of 80% inhibition with 100 ng/mL RLX.
# [5] = test system: perfused guinea pig hearts; assay: Nitric oxide (nitrite) production and histamine release in perfused guinea pig hearts
# Protocol: To clarify the mechanisms of action of RLX on dilation of coronary vessels, nitric oxide (NO) production and histamine release were assayed in the perfused guinea pig hearts. NO, which is known to be a powerful vasodilatory agent, was measured by determination of nitrites (stable end-products of NO metabolism) in the perfusates. In some experiments, N^W -monomethyl L-arginine (MeArg), a NO-synthase inhibitor, was added to the perfusion fluid before giving RLX as a bolus; in other experiments,guinea pigs were pretreated with E.coli lipopolysaccharide (LPS), an inducer of NO-synthase activity before heart isolation and perfusion. […] This was further confirmed by the experiments with MeArg and LPS, drugs that blunted and enhanced the RLX-induced increase in the coronary flow, respectively (FIG. 2).
# [6] = Cholesterol and triglycerides in peripheral blood serum; type: in vivo; details: peripheral blood serum after RLX administration
# [7] = Blood osmolality and sodium concentration in rats after RLX; type: in vivo, rat; details: rats after RLX (from 142±4 before)
# heart atria = details: Osheroff et al.; cited from earlier work
# [8] = test system: rat hearts, isolated and perfused in vitro; assay: Coronary flow in isolated rat hearts perfused in a Langendorff apparatus; details: RLX 30 ng/ml in perfusion fluid for 20 minutes or as bolus into the aortic cannula; rat heart (FIG. 1A)
# Protocol: as §1
# atrial myocardiocytes = assay: ANP secretion from atrial myocardiocytes of rats after intraperitoneal RLX; type: in vivo, rat
# Protocol: 3-a ANP secretion was studied in rats following intraperitoneal administration of 10 μg RLX. It is known that atrial myocardiocytes have an endocrine function, being able to synthesize and release a peptide, called atrial natriuretic peptide (ANP) that, besides its firstly recognized effect in stimulating natriuresis, has other properties such as a negative action on blood pressure due to a decrease in the vascular tone and a shift of the plasma fluid in the interstitial compartment. A possible relationship has therefore been searched for between RLX and ANP by evaluating the amount of immunoreactive ANP and the ultrastructural features of atrial myocardiocytes of rats upon RLX treatment. […] No appreciable changes were found in the extension of the ergastoplasm and Golgi apparatus. […] Determinations of ANP content in rat atria homogenates by RIA before and after in vivo administration of RLX are in agreement with the EM findings.
# male rats = assay: Plasma hemostasis factors, circulating platelets and megacaryocytes in male rats injected intraperitoneally with RLX; type: in vivo, rat
# Protocol: A second series of experiments was performed in male rats injected intraperitoneally with RLX and sacrificed 20 minutes later. Before sacrifice, blood and plasma samples were collected for studying plasma hemostasis factors and number of circulating platelets; upon sacrifice, spleen specimens were taken for studying the morphology of megacaryocytes.
compound,measurement,setting,value
"CNC(=N)NCCC[C@H](N)C(=O)O [MeArg, N^W -monomethyl L-arginine, reference compound]",effect on the RLX-induced increase in cGMP,BASM cells; pretreatment of BASM cells,depression
same,effect on the RLX-induced increase in the coronary flow,"[1]; MeArg added to perfusion fluid before RLX bolus, LPS pretreatment of guinea pigs before heart isolation",blunted
same,effect on the RLX-induced depression of histamine release evoked by calcium ionophore,[2]; mast cells,prevented
"rat RLX: rat relaxin infused for two days in a cited 1989 study (Relaxin B chain RVSEEWMDQVIQVCGRGYARAWIEVCGASVGRLAL; Relaxin A chain QSGALLSEQCCHIGCTRRSIAKLC; ends and bridges not checked; cysteine pairing not given here; UniProt P01347 23-57; P01347 163-186, looked up)",vasoconstrictive effects of norepinephrine and vasopressin,[3],blunted
relaxin [RLX],blood flow in the deep artery of the penis,"deep artery of the penis; 10 ng into the cavernous bodies, 4 human normal volunteers, 1-6 minutes after injection, versus basal flow",striking increase
same,erection,"deep artery of the penis; two subjects, 5-10 min. after RLX injection",erection was also observed
same,increase in intracellular cGMP levels,BASM cells; 10 ng/mL RLX for 1 hour,400 % over the values of the untreated cultures
same,increase in intracellular cGMP levels,BASM cells; 100 ng/mL RLX for 1 hour,900 % over the values of the untreated cultures
same,actin cytoskeleton (immunocytochemistry with anti-actin antibodies),BASM cells; BASM cells incubated for 4 hours with 100 ng/mL RLX,induces changes in the actin cytoskeleton
same,maximum inhibition of platelet aggregation induced by proaggregants,[4]; 100 ng/mL RLX,80%
same,thromboxane production in platelets,[4]; FIG. 7,inhibition of thromboxane production
same,endogenous NO synthesis in platelets,[4]; FIG. 8,stimulation of endogenous NO synthesis
same,intracellular cGMP in platelets,[4]; FIG. 9,rise in intracellular cGMP
same,cytosolic Ca2+ in platelets,[4]; FIG. 10,decrease of cytosolic Ca^2+
same,platelet ultrastructure during aggregation,[4]; ultrastructural examination,hinders the conformational modifications and granule exocytosis
same,amount of histamine in the perfusates,[5],significantly reduced
same,nitrite amounts in the perfusates (NO production),[5]; versus basal value,two-fold increase over the basal value
same,reduction of cholesterol concentration,[6],up to 38%
same,reduction of triglycerides concentration,[6],≤ 55%
same,sodium concentration,[7],136±2 mEq/1
same,binding to heart atria,heart atria,binding of RLX to heart atria
same,rhythm and contractions of the in vitro isolated atria,heart atria,increase of the rhythm and contractions
same,coronary flow,[8],increases significantly
same,amount of immunoreactive ANP and number of ANP-storing granules in atrial myocardiocytes,"atrial myocardiocytes; rats, 10 μg RLX intraperitoneal, twenty minutes after administration",strongly decreased
same,secretion of ANP from the atriocytes,atrial myocardiocytes; summary statement,"inhibit or, depending on the dose, totally suppress"
same,coronary flow,"[1]; RLX 30 ng/ml in perfusion fluid for 20 minutes or as bolus into the aortic cannula, guinea pig heart (FIG. 1B)",increases significantly
same,F 1 + 2,"male rats; rat plasma, RLX-Treated",0.028 ± 0.01 nM/mL
same,PT,"male rats; rat plasma, RLX-Treated",15.1 ± 0.5 s
same,aPTT,"male rats; rat plasma, RLX-Treated",19 ± 2.5 s
same,tPA Ag,"male rats; rat plasma, RLX-Treated",0.52 ± 0.1 ng/mL
same,Fibrinogen,"male rats; rat plasma, RLX-Treated, 20 minutes after intraperitoneal injection",185 ± 26 mg/dL
same,tPA activity,"male rats; rat plasma, RLX-Treated, P < 0.001",0.37 ± 0.03 U/mL
same,PAI-1 activity,"male rats; rat plasma, RLX-Treated, P < 0.05",11.7 ± 0.7 U/mL
same,coagulation factors such as fibrinogen and prothrombin fragments F1+2,male rats; rats,slight decrease
same,plasma levels of tPA and PAI-1,male rats; rats,"significant, concentration-dependant increase"
same,number of circulating platelets,"male rats; rats, in vivo",reduction in the number of circulating platelets
same,decrease of the rise in intracellular Ca2+ levels evoked by calcium ionophore,"[2]; 10 ng/mL RLX, mast cells",41%
same,decrease of the rise in intracellular Ca2+ levels evoked by calcium ionophore,"[2]; 100 ng/mL RLX, mast cells",97%
same,MC degranulation,[2]; mast cells,inhibits
same,calcium-ionophore-induced and anaphylactic histamine release,[2],inhibits
same,calcium-ionophore-induced and anaphylactic histamine release,[2]; listed as relaxin,"inhibit or, depending on the dose, totally suppress; also recorded: greatly inhibiting"
same,basal liberation of histamine by mastocytes,[2]; unstimulated mastocytes,no effect whatsoever
